Source: US20240000872A1, “NOVEL BACTERIOPHAGE THAT LYSES ACINETOBACTER GENUS BACTERIA HAVING RESISTANCE TO ANTIBIOTICS” (priority 2020, published 2024)

Test system: Acinetobacter baumannii strains
Experiment: Antibiotic susceptibility test (CLSI disk diffusion test method, read per CLSI 2016); for antibiotic susceptibility S/I/R: key: ‘S’ means susceptible; ‘I’ means intermediate; ‘R’ means resistant; for antibiotic susceptibility class: key: ‘S’ means susceptible; ‘I’ means intermediate; ‘R’ means resistant; for susceptibility category (S/I/R): key: ‘S’ means susceptible; ‘I’ means intermediate; ‘R’ means resistant
Format: cell-based
Set-up: antibiotic susceptibility test value / susceptibility test value (number given before S/I/R) / antibiotic susceptibility value: unit not given here

piperacillin-tazobactam
antibiotic susceptibility class (host strain YMC14/01/C29): R | antibiotic susceptibility test value (host strain YMC14/01/C29): 128 | antibiotic susceptibility class (host strain YMC14/01/IP122): R | antibiotic susceptibility test value (host strain YMC14/01/IP122): 128 | antibiotic susceptibility class (host strain YMC14/01/L8): R | antibiotic susceptibility test value (host strain YMC14/01/L8): 128 | antibiotic susceptibility class (host strain YMC14/01/P31): R | antibiotic susceptibility test value (host strain YMC14/01/P31): 128 | antibiotic susceptibility class (host strain YMC14/01/P117): R | antibiotic susceptibility test value (host strain YMC14/01/P117): 128 | antibiotic susceptibility class (host strain YMC14/01/P224): R | antibiotic susceptibility test value (host strain YMC14/01/P224): 128 | antibiotic susceptibility class (host strain YMC14/01/P727): R | antibiotic susceptibility test value (host strain YMC14/01/P727): 128 | antibiotic susceptibility class (host strain YMC14/01/P728): R | antibiotic susceptibility test value (host strain YMC14/01/P728): 128 | antibiotic susceptibility class (host strain YMC14/01/R130): R | antibiotic susceptibility test value (host strain YMC14/01/R130): 128 | antibiotic susceptibility class (host strain YMC14/01/R160): R | antibiotic susceptibility test value (host strain YMC14/01/R160): 128 | antibiotic susceptibility class (host strain YMC14/01/R198): R | antibiotic susceptibility test value (host strain YMC14/01/R198): 128 | antibiotic susceptibility class (host strain YMC14/01/R257): R | antibiotic susceptibility test value (host strain YMC14/01/R257): 128 | antibiotic susceptibility class (host strain YMC14/01/R270): R | antibiotic susceptibility test value (host strain YMC14/01/R270): 128 | antibiotic susceptibility class (host strain YMC14/01/R324): R | antibiotic susceptibility test value (host strain YMC14/01/R324): 128 | antibiotic susceptibility class (host strain YMC14/01/R443): R | antibiotic susceptibility test value (host strain YMC14/01/R443): 128 | antibiotic susceptibility class (host strain YMC14/01/R451): R | antibiotic susceptibility test value (host strain YMC14/01/R451): 128 | antibiotic susceptibility class (host strain YMC14/01/R560): R | antibiotic susceptibility test value (host strain YMC14/01/R560): 128 | antibiotic susceptibility class (host strain YMC14/01/R617): R | antibiotic susceptibility test value (host strain YMC14/01/R617): 128 | antibiotic susceptibility class (host strain YMC14/01/R671): R | antibiotic susceptibility test value (host strain YMC14/01/R671): 128 | antibiotic susceptibility class (host strain YMC14/01/R732): R | antibiotic susceptibility test value (host strain YMC14/01/R732): 128 | antibiotic susceptibility class (host strain YMC14/01/R767): R | antibiotic susceptibility test value (host strain YMC14/01/R767): 128 | antibiotic susceptibility class (host strain YMC14/01/R904): R | antibiotic susceptibility test value (host strain YMC14/01/R904): 128 | antibiotic susceptibility class (host strain YMC14/01/R905): R | antibiotic susceptibility test value (host strain YMC14/01/R905): 128 | antibiotic susceptibility class (host strain YMC14/01/R921): R | antibiotic susceptibility test value (host strain YMC14/01/R921): 128 | antibiotic susceptibility class (host strain YMC14/01/R941): R | antibiotic susceptibility test value (host strain YMC14/01/R941): 128 | antibiotic susceptibility class (host strain YMC14/01/R958): R | antibiotic susceptibility test value (host strain YMC14/01/R958): 128 | antibiotic susceptibility class (host strain YMC14/01/R1006): R | antibiotic susceptibility test value (host strain YMC14/01/R1006): 128 | antibiotic susceptibility class (host strain YMC14/01/R1199): R | antibiotic susceptibility test value (host strain YMC14/01/R1199): 128 | antibiotic susceptibility class (host strain YMC14/01/R1659): R | antibiotic susceptibility test value (host strain YMC14/01/R1659): 128 | antibiotic susceptibility class (host strain YMC14/01/R1722): R | antibiotic susceptibility test value (host strain YMC14/01/R1722): 128 | antibiotic susceptibility class (host strain YMC14/01/R1752): R | antibiotic susceptibility test value (host strain YMC14/01/R1752): 128 | antibiotic susceptibility class (host strain YMC14/01/R2429): R | antibiotic susceptibility test value (host strain YMC14/01/R2429): 128 | antibiotic susceptibility class (host strain YMC14/01/R2572): R | antibiotic susceptibility test value (host strain YMC14/01/R2572): 128 | antibiotic susceptibility class (host strain YMC14/01/R2855): R | antibiotic susceptibility test value (host strain YMC14/01/R2855): 128 | antibiotic susceptibility class (host strain YMC14/01/R2945): R | antibiotic susceptibility test value (host strain YMC14/01/R2945): 128 | antibiotic susceptibility class (host strain YMC14/01/R3007): R | antibiotic susceptibility test value (host strain YMC14/01/R3007): 128 | antibiotic susceptibility class (host strain YMC14/01/R3129): R | antibiotic susceptibility test value (host strain YMC14/01/R3129): 128 | antibiotic susceptibility class (host strain YMC14/01/R3317): R | antibiotic susceptibility test value (host strain YMC14/01/R3317): 128 | antibiotic susceptibility class (host strain YMC14/01/R3474): R | antibiotic susceptibility test value (host strain YMC14/01/R3474): 128 | antibiotic susceptibility class (host strain YMC14/01/R3574): R | antibiotic susceptibility test value (host strain YMC14/01/R3574): 128 | antibiotic susceptibility class (host strain YMC14/01/U313): R | antibiotic susceptibility test value (host strain YMC14/01/U313): 128 | antibiotic susceptibility class (host strain YMC14/01/U318): R | antibiotic susceptibility test value (host strain YMC14/01/U318): 128 | antibiotic susceptibility class (host strain YMC14/02/L18): R | antibiotic susceptibility test value (host strain YMC14/02/L18): 128 | antibiotic susceptibility class (host strain YMC14/02/P47): R | antibiotic susceptibility test value (host strain YMC14/02/P47): 128 | antibiotic susceptibility class (host strain YMC14/02/R1860): R | antibiotic susceptibility test value (host strain YMC14/02/R1860): 128 | antibiotic susceptibility class (host strain YMC14/02/R2417): R | antibiotic susceptibility test value (host strain YMC14/02/R2417): 128 | antibiotic susceptibility class (host strain YMC14/02/R2599): R | antibiotic susceptibility test value (host strain YMC14/02/R2599): 128 | antibiotic susceptibility class (host strain YMC14/02/R2668): R | antibiotic susceptibility test value (host strain YMC14/02/R2668): 128 | antibiotic susceptibility class (host strain YMC14/02/R2758): R | antibiotic susceptibility test value (host strain YMC14/02/R2758): 128 | antibiotic susceptibility class (host strain YMC14/02/R2781): R | antibiotic susceptibility test value (host strain YMC14/02/R2781): 128 | antibiotic susceptibility class (host strain YMC14/02/R3106): R | antibiotic susceptibility test value (host strain YMC14/02/R3106): 128 | antibiotic susceptibility class (host strain YMC14/02/R3419): R | antibiotic susceptibility test value (host strain YMC14/02/R3419): 128 | antibiotic susceptibility class (host strain YMC14/02/U1607): R | antibiotic susceptibility test value (host strain YMC14/02/U1607): 128 | antibiotic susceptibility class (host strain YMC14/03/L9): R | antibiotic susceptibility test value (host strain YMC14/03/L9): 128 | antibiotic susceptibility class (host strain YMC14/03/P471): R | antibiotic susceptibility test value (host strain YMC14/03/P471): 128 | antibiotic susceptibility class (host strain YMC14/03/R122): R | antibiotic susceptibility test value (host strain YMC14/03/R122): 128 | antibiotic susceptibility class (host strain YMC14/03/R217): R | antibiotic susceptibility test value (host strain YMC14/03/R217): 128 | antibiotic susceptibility class (host strain YMC14/03/R380): R | antibiotic susceptibility test value (host strain YMC14/03/R380): 128 | antibiotic susceptibility class (host strain YMC14/03/R618): R | antibiotic susceptibility test value (host strain YMC14/03/R618): 128 | antibiotic susceptibility class (host strain YMC14/03/R2144): R | antibiotic susceptibility test value (host strain YMC14/03/R2144): 128 | antibiotic susceptibility class (host strain YMC14/03/U4616): R | antibiotic susceptibility test value (host strain YMC14/03/U4616): 128 | antibiotic susceptibility class (host strain YMC14/04/R1078): R | antibiotic susceptibility test value (host strain YMC14/04/R1078): 128 | antibiotic susceptibility class (host strain YMC14/04/R1080): R | antibiotic susceptibility test value (host strain YMC14/04/R1080): 128 | antibiotic susceptibility S/I/R (host strain YMC14/06/R2359): R | antibiotic susceptibility value (host strain YMC14/06/R2359): 128 | susceptibility category (S/I/R) (host strain YMC14/06/R2359): R | susceptibility test value (number given before S/I/R) (host strain YMC14/06/R2359): 128 | antibiotic susceptibility S/I/R (host strain YMC14/08/R1169): R | antibiotic susceptibility value (host strain YMC14/08/R1169): 128 | susceptibility category (S/I/R) (host strain YMC14/08/R1169): R | susceptibility test value (number given before S/I/R) (host strain YMC14/08/R1169): 128 | antibiotic susceptibility S/I/R (host strain YMC14/08/T90): R | antibiotic susceptibility value (host strain YMC14/08/T90): 128 | susceptibility category (S/I/R) (host strain YMC14/08/T90): R | susceptibility test value (number given before S/I/R) (host strain YMC14/08/T90): 128 | antibiotic susceptibility S/I/R (host strain YMC15/02/R436): R | antibiotic susceptibility value (host strain YMC15/02/R436): 128 | susceptibility category (S/I/R) (host strain YMC15/02/R436): R | susceptibility test value (number given before S/I/R) (host strain YMC15/02/R436): 128 | antibiotic susceptibility S/I/R (host strain YMC15/02/T28): R | antibiotic susceptibility value (host strain YMC15/02/T28): 128 | susceptibility category (S/I/R) (host strain YMC15/02/T28): R | susceptibility test value (number given before S/I/R) (host strain YMC15/02/T28): 128 | antibiotic susceptibility S/I/R (host strain YMC15/03/R1604): R | antibiotic susceptibility value (host strain YMC15/03/R1604): 128 | susceptibility category (S/I/R) (host strain YMC15/03/R1604): R | susceptibility test value (number given before S/I/R) (host strain YMC15/03/R1604): 128 | antibiotic susceptibility S/I/R (host strain YMC15/09/R1869): R | antibiotic susceptibility value (host strain YMC15/09/R1869): 128 | susceptibility category (S/I/R) (host strain YMC15/09/R1869): R | susceptibility test value (number given before S/I/R) (host strain YMC15/09/R1869): 128 | antibiotic susceptibility S/I/R (host strain YMC16/01/P11): R | antibiotic susceptibility value (host strain YMC16/01/P11): 128 | susceptibility category (S/I/R) (host strain YMC16/01/P11): R | susceptibility test value (number given before S/I/R) (host strain YMC16/01/P11): 128 | antibiotic susceptibility S/I/R (host strain YMC16/01/R123): R | antibiotic susceptibility value (host strain YMC16/01/R123): 128 | susceptibility category (S/I/R) (host strain YMC16/01/R123): R | susceptibility test value (number given before S/I/R) (host strain YMC16/01/R123): 128 | antibiotic susceptibility S/I/R (host strain YMC16/01/R198): R | antibiotic susceptibility value (host strain YMC16/01/R198): 128 | susceptibility category (S/I/R) (host strain YMC16/01/R198): R | susceptibility test value (number given before S/I/R) (host strain YMC16/01/R198): 128 | antibiotic susceptibility S/I/R (host strain YMC16/01/R353): R
